Data reported in patent publication US8907093B2, “Carboxylic acid derivatives having an oxazolo[4,5-c]pyridine ring” (Sanofi, priority 2011, dated 2014).

Target: T1, human Edg 1 receptor (Homo sapiens, UniProt P21453)
T1 construct: FLAG (N); expressed in transfected cells; membrane preparation
Experiment: GTP-γ-S assay using human Edg 1 receptors (scintillation proximity assay, CHO Flp-In membrane preparation)
Format: biochemical
Conditions: test compound at 10 μM; [35S]GTP-γ-S binding; membranes of CHO Flp-In cells overexpressing human Edg 1
Excerpt: A) GTP-γ-S assay using human Edg 1 receptors
In order to determine the Edg 1 receptor activation by the compounds of the invention, a GTP-γ-S ((GTP-γ-S=guanosine 5′-[thio]triphosphate) assay for G-protein coupled receptor binding based on the scintillation proximity assay principle was used, employing a cell membrane preparation from a CHO Flp-In cell line which constitutively overexpresses the human Edg 1 receptor.
A membrane preparation was obtained by standard methods from the afore-described CHO Flp-In cell line constitutively overexpressing the human Edg 1 receptor. Briefly, the cryopreserved cells were taken in culture and grown until confluency in T175 cell culture flasks (Becton Dickinson, cat. no. 35 5001). […] Protein concentration of the membrane preparation was determined in a sample by means of a commercial protein assay (Bio-Rad, DC Protein Assay, cat. nos. 500-0113, 500-0114, 500-0115).
The Edg 1 membrane preparation obtained in (b) was employed in a commercially available scintillation proximity assay (SPA) kit for G-protein coupled receptor binding from Amersham Biosciences/GE Healthcare (code RPNQ0210), in which ligand-induced binding of ^35S-radiolabeled GTP-γ-S to the receptor-containing membrane, which is bound to scintillation beads, stimulates the emission of light and allows to quantify the in vitro activity of the Edg 1 agonistic compound. […]

T1 sequence (P21453 whole entry): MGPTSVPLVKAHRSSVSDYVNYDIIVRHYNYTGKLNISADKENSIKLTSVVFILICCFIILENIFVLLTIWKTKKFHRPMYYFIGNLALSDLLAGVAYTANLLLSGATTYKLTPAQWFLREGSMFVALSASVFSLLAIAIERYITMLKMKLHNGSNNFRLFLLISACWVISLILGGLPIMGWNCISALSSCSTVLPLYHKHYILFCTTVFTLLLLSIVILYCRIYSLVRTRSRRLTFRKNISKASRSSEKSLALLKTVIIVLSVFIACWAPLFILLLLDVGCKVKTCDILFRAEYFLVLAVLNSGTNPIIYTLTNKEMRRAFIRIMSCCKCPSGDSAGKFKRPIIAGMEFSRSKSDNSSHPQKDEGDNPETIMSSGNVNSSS

receptor activation in percent of the respective high control (10 μM S1P, regarded as 100% activation): 86%
SMILES: Cc1cc(-c2nc3cnc(Oc4ccccc4F)cc3o2)cc(C)c1OCC(=O)O [Example 1, {4-[6-(2-Fluorophenoxy)oxazolo[4,5-c]pyridin-2-yl]-2,6-dimethylphenoxy}acetic acid]
